Test results published in US20220089578A1, “COMPOUNDS AS GLP-1R AGONISTS” (Terns Pharmaceuticals, Inc., priority 2020, published 2022).
pEC50: −log10 of the molar value.

Each compound was assayed against human GLP-1R (Homo sapiens, UniProt P43220) (assay: GLP-1R Cell Assay 1: cAMP Hunter CHO-K1 GLP1R Gs cell line, HitHunter cAMP assay). Settings: Table 2; cAMP Hunter CHO-K1 GLP1R Gs cells; percent activity normalized to Exendin-4.
Type: cell-based
Protocol: GLP-1R mediated agonist activity was determined using the cAMP Hunter CHO-K1 GLP1R Gs cell line (DiscoverX, cat# 95-0062C2), a stable CHO-K1 derived cell lines overexpressing naturally Gs coupled wild-type human GLP-1R (accession number: NM_002062.3). GLP-1R agonism in this cell line was detected by measuring cellular cAMP levels using the HitHunter cAMP assay kit (cat# 90-0075SM2), a homogenous, gain-of-signal competitive immune assay based on Enzyme Fragment Complementation (EFC) technology. In this system cellular cAMP competes with exogenous labeled cAMP (ED-cAMP) for binding to an anti-cAMP antibody. […] The luminescent signal is directly proportional to the amount of cellular cAMP.
For compound testing, cells were seeded in a total volume of 20 μL in white walled, 384-well microplates and incubated at 37° C. prior to compound testing. Prior to compound addition, cell culture media was removed by aspiration and replaced with 15 pt reagent buffer (2:1 HBSS/10 mM HEPES: cAMP XS+Ab reagent). Compounds were dissolved in DSMO and serially diluted (3-fold) prior to final dilution to 4X in assay buffer. Samples (5 μL) were added to cells and incubated at 37° C. for […] prior to 1 hour incubation with 20 pt cAMP XS+ED/CL lysis reagent and 3 hour incubation with 20 μL cAMP XS+EA reagent at room temperature. Microplates were read on a PerkinElmer Envision instrument. Compound activity was analyzed using CBIS data analysis suite (ChemInnovation). Percent activity was calculated based on duplicate assay runs and normalized to the positive control Exendin-4, a GLP-1R peptide agonist, using the following formula: […]
The effective compound concentration resulting in 50% response (EC50) was determined by non-linear regression analysis of dose-response curves.

Chain of human GLP-1R (P43220 24-463): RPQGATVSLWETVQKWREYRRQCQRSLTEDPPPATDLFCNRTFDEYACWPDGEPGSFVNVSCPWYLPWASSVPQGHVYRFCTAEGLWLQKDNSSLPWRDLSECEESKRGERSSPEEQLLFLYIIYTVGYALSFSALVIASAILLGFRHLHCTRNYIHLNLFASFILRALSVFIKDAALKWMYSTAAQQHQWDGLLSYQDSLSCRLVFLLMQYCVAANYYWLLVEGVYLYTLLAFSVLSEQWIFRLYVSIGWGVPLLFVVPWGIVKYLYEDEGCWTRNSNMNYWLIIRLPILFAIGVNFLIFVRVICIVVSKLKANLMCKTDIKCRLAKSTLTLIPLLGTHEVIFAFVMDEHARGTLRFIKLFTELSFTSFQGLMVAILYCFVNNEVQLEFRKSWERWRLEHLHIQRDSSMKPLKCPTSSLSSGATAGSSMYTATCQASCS

Compound | pEC50
CN(Cc1ccc(C(N)=O)cc1)c1cccc(N2CCN(Cc3nc4ccc(C(=O)O)cc4n3C[C@@H]3CCO3)CC2)n1 [Compound 64, (S)-2-((4-(6-((4-carbamoylbenzyl)(methyl)amino)pyridin-2-yl)piperazin-1-yl)methyl)-1-(oxetan-2-ylmethyl)-1H-benzo[d]imidazole-6-carboxylic acid] | < 6.30
O=C(O)c1ccc2nc(CN3CC(=O)N(c4cccc(OCc5ccccc5)n4)CC3=O)n(C[C@@H]3CCO3)c2c1 [Compound 17, (S)-2-((4-(6-(benzyloxy)pyridin-2-yl)-2,5-dioxopiperazin-1-yl)methyl)-1-(oxetan-2-ylmethyl)-1H-benzo[d]imidazole-6-carboxylic acid] | 7.64
O=C(O)c1ccc2nc(CN3CCN(c4cccc(OCc5cccnc5)n4)CC3)n(C[C@@H]3CCO3)c2c1 [Compound 53, (S)-1-(oxetan-2-ylmethyl)-2-((4-(6-(pyridin-3-ylmethoxy)pyridin-2-yl)piperazin-1-yl)methyl)-1H-benzo[d]imidazole-6-carboxylic acid] | 8.11
N#Cc1ccc(COc2cccc([C@@]34CCN(Cc5nc6ccc(C(=O)O)cc6n5C[C@@H]5CCO5)C[C@@H]3C4)n2)c(F)c1 (single isomer, unassigned) [Compound 9-P1] | 9.77
O=C(O)c1ccc2nc(CN3CCN(c4cccc(OC5CN(c6ccccc6)C5)n4)CC3)n(C[C@@H]3CCO3)c2c1 [Compound 39, (S)-1-(oxetan-2-ylmethyl)-2-((4-(6-((1-phenylazetidin-3-yl)oxy)pyridin-2-yl)piperazin-1-yl)methyl)-1H-benzo[d]imidazole-6-carboxylic acid] | 6.38
CCn1cncc1Cn1c(CN2CCC3(c4cccc5c4OC(C)(c4ccc(Cl)cc4F)O5)CC3C2)nc2ccc(C(=O)O)cc21 (stereo not drawn) [Compound 138, 2-((6-(2-(4-chloro-2-fluorophenyl)-2-methylbenzo[d][1,3]dioxol-4-yl)-3-azabicyclo[4.1.0]heptan-3-yl)methyl)-1-((1-ethyl-1H-imidazol-5-yl)methyl)-1H-benzo[d]imidazole-6-carboxylic acid] | 9.97
N#Cc1ccc(COc2cccc(N3CCC(Cc4nc5ccc(C(=O)O)cc5n4C[C@@H]4CCO4)CC3)n2)c(F)c1 [Compound 15, (S)-2-((1-(6-((4-cyano-2-fluorobenzyl)oxy)pyridin-2-yl)piperidin-4-yl)methyl)-1-(oxetan-2-ylmethyl)-1H-benzo[d]imidazole-6-carboxylic acid] | 9.51
N#Cc1ccc2c(c1)CCN(c1cccc(N3CCN(Cc4nc5ccc(C(=O)O)cc5n4C[C@@H]4CCO4)CC3)n1)CC2 [Compound 2, (S)-2-((4-(6-(7-cyano-4,5-dihydro-1H-benzo[d]azepin-3(2H)-yl)pyridin-2-yl)piperazin-1-yl)methyl)-1-(oxetan-2-ylmethyl)-1H-benzo[d]imidazole-6-carboxylic acid] | < 6.30
O=C(O)c1ccc2nc(CN3CCN(c4cccc(OCc5ccncc5)n4)CC3)n(C[C@@H]3CCO3)c2c1 [Compound 42, (S)-1-(oxetan-2-ylmethyl)-2-((4-(6-(pyridin-4-ylmethoxy)pyridin-2-yl)piperazin-1-yl)methyl)-1H-benzo[d]imidazole-6-carboxylic acid] | 8.42
O=C(O)c1ccc2nc(CN3CCN(c4ccc5cnn(Cc6ccccc6)c5n4)CC3)n(C[C@@H]3CCO3)c2c1 [Compound 27, (S)-2-((4-(1-benzyl-1H-pyrazolo[3,4-b]pyridin-6-yl)piperazin-1-yl)methyl)-1-(oxetan-2-ylmethyl)-1H-benzo[d]imidazole-6-carboxylic acid] | 6.63
N#Cc1cnc(COc2cccc(N3CCN(Cc4nc5ccc(C(=O)O)cc5n4C[C@@H]4CCO4)CC3)n2)nc1 [Compound 16, (S)-2-((4-(6-((5-cyanopyrimidin-2-yl)methoxy)pyridin-2-yl)piperazin-1-yl)methyl)-1-(oxetan-2-ylmethyl)-1H-benzo[d]imidazole-6-carboxylic acid] | 8.03

More lines, now with the values ahead:

pEC50 | Compound
6.69 | N#Cc1cccc2c1CCN(c1cccc(N3CCN(Cc4nc5ccc(C(=O)O)cc5n4C[C@@H]4CCO4)CC3)n1)CC2 [Compound 79, (S)-2-((4-(6-(6-cyano-1,2,4,5-tetrahydro-3H-benzo[d]azepin-3-yl)pyridin-2-yl)piperazin-1-yl)methyl)-1-(oxetan-2-ylmethyl)-1H-benzo[d]imidazole-6-carboxylic acid]
8.59 | N#Cc1ccc2sc(COc3cccc(N4CCN(Cc5nc6ccc(C(=O)O)cc6n5C[C@@H]5CCO5)CC4)n3)nc2c1 [Compound 129, (S)-2-((4-(6-((5-cyanobenzo[d]thiazol-2-yl)methoxy)pyridin-2-yl)piperazin-1-yl)methyl)-1-(oxetan-2-ylmethyl)-1H-benzo[d]imidazole-6-carboxylic acid]
8.38 | N#Cc1ccc(COc2nn(C3CCN(Cc4nc5ccc(C(=O)O)cc5n4C[C@@H]4CCO4)CC3)cc2F)c(F)c1 [Compound 108, (S)-2-((4-(3-((4-cyano-2-fluorobenzyl)oxy)-4-fluoro-1H-pyrazol-1-yl)piperidin-1-yl)methyl)-1-(oxetan-2-ylmethyl)-1H-benzo[d]imidazole-6-carboxylic acid]
6.85 | N#Cc1ccc2c(c1)CCCN(c1cccc(N3CCN(Cc4nc5ccc(C(=O)O)cc5n4C[C@@H]4CCO4)CC3)n1)C2 [Compound 74, (S)-2-((4-(6-(7-cyano-1,3,4,5-tetrahydro-2H-benzo[c]azepin-2-yl)pyridin-2-yl)piperazin-1-yl)methyl)-1-(oxetan-2-ylmethyl)-1H-benzo[d]imidazole-6-carboxylic acid]
6.61 | N#Cc1ccc(Cn2cnc3ccc(N4CCN(Cc5nc6ccc(C(=O)O)cc6n5C[C@@H]5CCO5)CC4)nc32)c(F)c1 [Compound 100, (S)-2-((4-(3-(4-cyano-2-fluorobenzyl)-3H-imidazo[4,5-b]pyridin-5-yl)piperazin-1-yl)methyl)-1-(oxetan-2-ylmethyl)-1H-benzo[d]imidazole-6-carboxylic acid]
6.93 | N#Cc1ccc2c(c1)CN(c1cccc(N3CCN(Cc4nc5ccc(C(=O)O)cc5n4C[C@@H]4CCO4)CC3)n1)CC2 [Compound 77, (S)-2-((4-(6-(7-cyano-3,4-dihydroisoquinolin-2(1H)-yl)pyridin-2-yl)piperazin-1-yl)methyl)-1-(oxetan-2-ylmethyl)-1H-benzo[d]imidazole-6-carboxylic acid]
8.65 | O=C(O)c1ccc2nc(CN3CCN(c4cccc(OCc5nc6cccnc6s5)n4)CC3)n(C[C@@H]3CCO3)c2c1 [Compound 122, (S)-1-(oxetan-2-ylmethyl)-2-((4-(6-(thiazolo[5,4-b]pyridin-2-ylmethoxy)pyridin-2-yl)piperazin-1-yl)methyl)-1H-benzo[d]imidazole-6-carboxylic acid]
< 6.30 | N#Cc1ccc2c(c1)CCN(c1ccn(C3CCN(Cc4nc5ccc(C(=O)O)cc5n4C[C@@H]4CCO4)CC3)n1)C2 [Compound 105, (S)-2-((4-(3-(6-cyano-3,4-dihydroisoquinolin-2(1H)-yl)-1H-pyrazol-1-yl)piperidin-1-yl)methyl)-1-(oxetan-2-ylmethyl)-1H-benzo[d]imidazole-6-carboxylic acid]
10.29 | CCn1cncc1Cn1c(CN2CCC(c3cccc(N4CCc5cc(C#N)cc(F)c5C4)n3)CC2)nc2ccc(C(=O)O)cc21 [Compound 137, 2-((4-(6-(6-cyano-8-fluoro-3,4-dihydroisoquinolin-2(1H)-yl)pyridin-2-yl)piperidin-1-yl)methyl)-1-((1-ethyl-1H-imidazol-5-yl)methyl)-1H-benzo[d]imidazole-6-carboxylic acid]
8.66 | O=C(O)c1ccc2nc(CN3CCN(c4cccc(OCc5ccc6ncoc6c5)n4)CC3)n(C[C@@H]3CCO3)c2c1 [Compound 75, (S)-2-((4-(6-(benzo[d]oxazol-6-ylmethoxy)pyridin-2-yl)piperazin-1-yl)methyl)-1-(oxetan-2-ylmethyl)-1H-benzo[d]imidazole-6-carboxylic acid]

Same assay, conditions: Table 3; cAMP Hunter CHO-K1 GLP1R Gs cells; percent activity normalized to Exendin-4

Compound | pEC50
O=C(O)c1ccc2nc(CN3CCN(c4ccc5c(n4)N(Cc4ccccc4)C(=O)CC5)CC3)n(C[C@@H]3CCO3)c2c1 [Compound 158, (S)-2-((4-(8-benzyl-7-oxo-5,6,7,8-tetrahydro-1,8-naphthyridin-2-yl)piperazin-1-yl)methyl)-1-(oxetan-2-ylmethyl)-1H-benzo[d]imidazole-6-carboxylic acid] | < 6.30
CCn1cncc1Cn1c(CN2CCC(c3cccc(OCc4nc5ccc(C#N)cc5s4)n3)CC2)nc2ccc(C(=O)O)cc21 [Compound 165, 2-((4-(6-((6-cyanobenzo[d]thiazol-2-yl)methoxy)pyridin-2-yl)piperidni-1-yl)methyl)-1-((1-ethyl-1H-imidazol-5-yl)methyl)-1H-benzo[d]imidazole-6-carboxylic acid] | 10.60
O=C(O)c1ccc2nc(CN3CCC(n4cc5cccc(Oc6ccccc6)c5n4)CC3)n(C[C@@H]3CCO3)c2c1 [Compound 159, (S)-1-(oxetan-2-ylmethyl)-2-((4-(7-phenoxy-2H-indazol-2-yl)piperidin-1-yl)methyl)-1H-benzo[d]imidazole-6-carboxylic acid] | < 6.30
